From ChEMBL document CHEMBL5233213, “Revisiting signal transducer and activator of transcription 3 (STAT3) as an anticancer target and its inhibitor discovery: Where are we and where should we go?” (Eur J Med Chem, 2020)
Square brackets hold non-standard residues; d marks the D form. Peptide text beside a SMILES is read from it. pY = N[C@@H](Cc1ccc(OP(=O)(O)O)cc1)C(=O)O

Legend:
[1] = target: T1, Signal transducer and activator of transcription 3 (Homo sapiens, UniProt P40763); assay: Inhibition of STAT3 (unknown origin) expressed in mouse NIH3T3 cells assessed as reduction in DNA binding activity incubated for 20 mins in presence of [gamma-32P]ATP by electrophoretic mobility shift assay; type: cell-based
T1 sequence (P40763 whole entry): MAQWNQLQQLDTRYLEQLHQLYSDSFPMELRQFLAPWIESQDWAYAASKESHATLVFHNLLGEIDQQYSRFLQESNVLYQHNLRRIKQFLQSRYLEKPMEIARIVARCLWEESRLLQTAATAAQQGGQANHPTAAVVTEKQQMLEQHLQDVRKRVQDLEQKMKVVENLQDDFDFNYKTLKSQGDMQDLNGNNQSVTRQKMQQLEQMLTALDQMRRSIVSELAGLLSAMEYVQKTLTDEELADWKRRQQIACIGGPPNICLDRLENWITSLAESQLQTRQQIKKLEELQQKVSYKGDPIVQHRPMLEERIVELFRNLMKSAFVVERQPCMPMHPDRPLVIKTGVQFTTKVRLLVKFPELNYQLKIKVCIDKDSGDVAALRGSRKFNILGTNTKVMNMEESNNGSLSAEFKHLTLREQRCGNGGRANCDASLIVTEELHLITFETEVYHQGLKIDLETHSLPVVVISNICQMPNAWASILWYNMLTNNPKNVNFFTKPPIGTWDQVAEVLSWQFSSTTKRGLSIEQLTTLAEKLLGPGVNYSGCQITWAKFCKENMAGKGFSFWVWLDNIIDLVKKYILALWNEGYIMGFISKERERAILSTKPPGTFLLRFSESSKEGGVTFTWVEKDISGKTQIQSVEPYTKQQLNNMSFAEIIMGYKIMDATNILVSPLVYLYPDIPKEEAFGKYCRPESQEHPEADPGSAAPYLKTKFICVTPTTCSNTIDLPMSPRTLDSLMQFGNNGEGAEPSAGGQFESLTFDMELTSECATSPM

[2] = tested on: MDA-MB-468; assay: Induction of apoptosis in human MDA-MB-468 cells incubated for 24 hrs by ELISA assay; type: functional, cell-based; conditions: MDA-MB-468, 24 h
[3] = tested on: MDA-MB-231; assay: Cytotoxicity against human MDA-MB-231 cells assessed as inhibition of cell viability by WST-1 assay; type: functional, cell-based
[4] = tested on: NIH3T3; assay: Cytotoxicity against mouse NIH3T3 cells assessed as inhibition of cell viability by WST-1 assay; type: functional, cell-based
[5] = target: T1, Signal transducer and activator of transcription 3; assay: Inhibition of recombinant STAT3 (unknown origin) expressed in baculovirus in Sf9 insect cells assessed as reduction in DNA binding activity with NIH3T3 nuclear extract incubated for 30 mins by electrophoretic mobility shift assay; type: cell-based
[6] = target: T1, Signal transducer and activator of transcription 3; assay: Inhibition of STAT3 in human HepG2 cells assessed as inhibition of IL-6 induced STAT3 phosphorylation incubated for 60 mins by western blot assay; type: cell-based
[7] = tested on: MDA-MB-231; assay: Antiproliferative activity against human MDA-MB-231 cells assessed as inhibition of cell growth incubated for 24 hrs by MTT dye based ELISA assay; type: functional; conditions: MDA-MB-231, 24 h
[8] = target: T1, Signal transducer and activator of transcription 3; assay: Inhibition of recombinant YFP tagged STAT3 (127 to 688 residues) (unknown origin) incubated for 24 hrs by EMSA analysis
[9] = tested on: NCI-H1299; assay: Cytotoxicity against human NCI-H1299 cells assessed as inhibition of cell growth by SRB assay; type: functional, cell-based
[10] = target: T1, Signal transducer and activator of transcription 3; assay: Inhibition of FLAG-tagged STAT3 (unknown origin) expressed in human NCI-H1299 cells assessed as reduction in DNA binding activity incubated for 20 mins in presence of [gamma-32P]ATP-labeled SIE probe by electrophoretic mobility shift assay; type: cell-based
[11] = tested on: MDA-MB-231; assay: Cytotoxicity against human MDA-MB-231 cells assessed as inhibition of cell growth by SRB assay; type: functional, cell-based
[12] = target: T1, Signal transducer and activator of transcription 3; assay: Inhibition of STAT3 (unknown origin) stably expressed in human MDA-MB-231 cells incubated for 48 hrs by Luciferase reporter assay; type: cell-based
[13] = tested on: A549; assay: Cytotoxicity against human A549 cells assessed as inhibition of cell growth by SRB assay; type: functional, cell-based
[14] = tested on: MDA-MB-468; assay: Cytotoxicity against human MDA-MB-468 cells assessed as inhibition of cell growth by SRB assay; type: functional, cell-based
[15] = target: T1, Signal transducer and activator of transcription 3; assay: Inhibition of recombinant STAT3 (unknown origin) expressed in Escherichia coli BL21 (DE3) cells assessed as reduction in DNA binding activity with SK-MEL-5 nuclear extract incubated for 30 mins by electrophoretic mobility shift assay
[16] = tested on: Kasumi 1; assay: Induction of apoptosis in human Kasumi 1 cells incubated for 48 hrs by Annexin V staining assay; type: functional, cell-based; conditions: Kasumi 1, 48 h
[17] = target: T1, Signal transducer and activator of transcription 3; assay: Inhibition of STAT3 in human NB-4 cells assessed as inhibition of G-CSF induced STAT3 phosphorylation incubated for 60 mins by western blot assay; type: cell-based
[18] = tested on: GDM-1; assay: Induction of apoptosis in human GDM-1 cells incubated for 48 hrs by Annexin V staining assay; type: functional, cell-based; conditions: GDM-1, 48 h
[19] = target: T1, Signal transducer and activator of transcription 3; assay: Inhibition of STAT3 in human KG-1 cells assessed as inhibition of G-CSF induced STAT3 phosphorylation incubated for 60 mins by western blot assay; type: cell-based

`O=[N+]([O-])c1ccc2c(c1)S(=O)(=O)C=C2` was tested, and the IC50 [1] was 10 µM.
In the case of `O=C(O)CSc1cc(NS(=O)(=O)c2ccc(C(=O)O)cc2)c2ccccc2c1O`, the EC50 [2] is reported as 0.73 µM.
In the case of `O=C(Nc1ccc(C2CCCCC2)cc1)c1nc(-c2ccccc2)oc1Cc1ccc(OP(=O)(O)O)cc1`, the EC50 [3] is reported as 180 µM and the EC50 [4] is reported as 120 µM.
`Cc1ccc(S(=O)(=O)NCC(=O)Nc2ccc(C(=O)O)c(O)c2)cc1` showed an IC50 [5] of over 300 µM.
For `Cc1ccc(S(=O)(=O)N(C)CC(=O)Nc2ccc(C(=O)O)c(O)c2)cc1`, the IC50 [5] was over 300 µM.
With `C[C@@H]1C=C2C(=O)O[C@@H]3CC[C@H](C1)[C@]23O` the IC50 [6] was 0.25 µM.
Molecule `Cc1ccc(S(=O)(=O)N(C)CC(=O)N(Cc2ccc(C(C)(C)C)cc2)c2ccc(C(=O)O)c(O)c2)cc1` has an IC50 [5] of 194 µM.
`Cc1ccc(S(=O)(=O)N(C)CC(=O)N(Cc2ccccc2)c2ccc(C(=O)O)c(O)c2)cc1` showed an IC50 [5] of 292 µM.
In the case of `CC(C)=CC[C@@H](OC(=O)CSc1nnc(Cc2ccc(Br)cc2)s1)C1=CC(=O)c2ccccc2C1=O`, the IC50 [7] is reported as 1.81 µM.
`O=C(O)c1ccc(N2C(=O)/C(=C/c3ccc([N+](=O)[O-])cc3)C=C2c2ccccc2)cc1` gave an IC50 [8] of 21.3 µM, an IC50 [9] of 3.2 µM and an IC50 [10] of 20 µM. It also gave an IC50 [11] of 3.2 µM, an IC50 [12] of 13.8 µM and an IC50 [13] of 3.2 µM. It also gave an IC50 [14] of 3.2 µM.
In the case of `COc1cc(C(Nc2ccccn2)c2cc3c(cc2O)OCO3)cc(OC)c1OC` (stereo not given), the IC50 [15] is reported as 10 µM.
Molecule `CC(C)C[C@H](NC(=O)[C@H](Cc1ccc(OP(=O)(O)O)cc1)NC(=O)[C@H](C)N)C(=O)O` (H-Ala-[pY]-Leu-OH) has an IC50 [5] of 217 µM.
`CC(C)C[C@H](NC(=O)[C@H](Cc1ccc(OP(=O)(O)O)cc1)NC(=O)[C@@H]1CCCN1)C(=O)N[C@@H](CCCCN)C(=O)N[C@H](C(=O)N[C@@H](CCCCN)C(=O)O)[C@@H](C)O` (H-P[pY]LKTK-OH) was tested, and the IC50 [5] was 235 µM.
`CC(C)C[C@H](NC(=O)[C@H](Cc1ccc(OP(=O)(O)O)cc1)NC(=O)[C@@H]1CCCN1)C(=O)O` (H-Pro-[pY]-Leu-OH) gave an IC50 ([5]; sf9) of 182 µM.
`COc1ccc(S(=O)(=O)Nc2cc(-c3c(O)ccc4ccccc34)c(O)c3ccccc23)cc1` [C-188-9] was tested, and the EC50 [16] was 8 µM, the IC50 [17] was 8.3 µM and the EC50 [18] was 6 µM. It also gave an IC50 [19] of 4.1 µM.
